Assay results as given in PMC10999543, “Identification of kinase modulators as host-directed therapeutics against intracellular methicillin-resistant Staphylococcus aureus” (Frontiers in Cellular and Infection Microbiology, 2024).
Like-named read-outs stand apart in the source and are kept apart here.

Key:
[1] = system: intracellular MRSA; type: cell-based, Staphylococcus aureus; details: for z-scoreMRSA+ mean: mean of 3 replicates; for z-scoreMRSA+ rep 1 / %GFP+ rep 1: replicate 1; for z-scoreMRSA+ rep 2 / %GFP+ rep 2: replicate 2; for z-scoreMRSA+ rep 3 / %GFP+ rep 3: replicate 3
Summary of the method: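 HeLa cells were infected with GFP-expressing MRSA (mean MOI 6.8) for 1 h, treated with 30 µg/ml gentamicin for 15 min, then incubated overnight at 37°C with kinase inhibitors and 5 µg/ml gentamicin. Flow cytometry gave % GFP-positive cells, with cell count as viability. Hits were z-score ≤ -2 (infection) and ≥ -3 (count) versus DMSO.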

[2] = system: planktonic MRSA cultures; test: Bacterial growth assay in cell-free planktonic MRSA cultures (OD600); type: cell-based, Staphylococcus aureus; details: Supplementary Figure S5
Procedure: […] The absorbance was measured using an EnVision plate reader (PerkinElmer). The plates were incubated at 37°C overnight and the absorbance was measured again the next day. Real-time measurement of bioluminescence by the MRSA-lux strain was performed in a white flat-bottom 96-wells plate using a SpectraMax i3x plate reader and an integration time set at 9000 ms.

[3] = system: intracellular MRSA in A549 cells; test: Gentamicin protection assay with CFU count in MRSA-infected A549 cells; type: cell-based, Staphylococcus aureus; details: 10 µM, n=7
Procedure: (§1) The cells were resuspended in cell culture medium without antibiotics, seeded with 10,000 cells/well into Costar flat-bottom 96-well plates (Corning, Amsterdam, the Netherlands), and were incubated overnight at 37°C/5% CO2. The next day, the bacteria were centrifuged at ≥1800 g for 15 min and resuspended in cold PBS + 5 mM ethylenediaminetetraacetic acid (EDTA). The number of CFUs present in the bacterial suspension was estimated from the optical density at 600 nm (OD600) by assuming 8x10^8 CFUs to be present in a bacterial suspension with OD600 = 1, based on prior titrations. The bacterial suspension was diluted in cell culture medium without antibiotics and added to the cells. Accuracy of the multiplicity of infection (MOI) was validated by plating serial dilutions of the MRSA inoculums on Difco TS agar plates (BD Biosciences). The calculated mean MOI throughout all experiments was 6.8 ± 4.6 (mean ± SD). Infected cells were centrifuged for 3 min at 150 g and incubated for 1 hour at 37°C/5% CO2. Next, the cells were incubated with fresh cell culture medium supplemented with 30 µg/ml gentamicin sulphate (Lonza BioWhittaker, Basel, Switzerland) for 15 min at 37°C/5% CO2 to kill residual extracellular bacteria. […]

[4] = system: intracellular MRSA in PMA-differentiated THP-1 cells; test: Gentamicin protection assay with CFU count in MRSA-infected PMA-differentiated THP-1 cells; type: cell-based, Staphylococcus aureus; details: 10 µM, n=6
Procedure: as §1

[5] = system: EGFR; design: method as in Elkins et al., 2016; details: PKIS1, Caliper assay, ref Elkins et al., 2016; cited from earlier work
[6] = system: HER4; design: method as in Elkins et al., 2016; details: PKIS1, Caliper assay, ref Elkins et al., 2016; cited from earlier work
[7] = system: A549 cells; type: cell-based, human; details: 10 µM
Procedure: (§2) Before harvesting or lysing the cells of the intracellular infection assays, the supernatant from the cells was collected to quantify LDH release by the cells using the LDH cytotoxicity detection kit (Roche, Merck, Darmstadt, Germany) according to the manufacturer’s instructions. Triton X-100 results in maximum LDH release by permeabilizing the cells and was used as positive control. Quantification was performed with the EnVision plate reader.

[8] = system: AMPK; test: Phosphorylation of ACC1 at Ser80 by flow cytometry (readout for AMPK activity); type: cell-based, human; details: MRSA-infected HeLa cells
Procedure: To determine the expression of the HER kinase family, cells were harvested using PBS + 5 mM EDTA and fixed in 1% paraformaldehyde for 20 min at RT. To determine phosphorylation of ACC1 at Ser80, cells were harvested by incubation in pre-warmed trypsin-EDTA, which was neutralized after 5 min with an equal volume of FBS, and fixed in 4% ultra-pure formaldehyde (Bio Trend, Cologne, Germany) for 20 min at RT. For intracellular staining, the cells were permeabilized in ice-cold methanol for 20 min. Subsequently, the cells were blocked in PBS + 0.5% bovine serum albumin + 0.005% NaN3 (both from Sigma-Aldrich; FACS buffer) + 5% human serum for 5 min. The cells were labelled with primary and secondary antibodies (listed in Supplementary Table S1 ) in FACS buffer. Samples were measured on the FACSLyric and analysed using FlowJo 10 (FlowJo LCC, Ashland, OR, USA).

[9] = system: MCF7 cells; type: cell-based, human; details: 10 µM
Procedure: as §2

[10] = PKIS compound screen, Yes/No call
[11] = PKIS compound screen, Yes/No call (effect without cell death)
[12] = PKIS compounds raw data, MRSA-infected HeLa cells
[13] = compound screen, MRSA-infected HeLa cells
[14] = PKIS compound screen raw data, MRSA-infected HeLa cells
[15] = PKIS compound screen, MRSA-infected HeLa cells

Row | SMILES | effect [1, 10] | hit [1, 11] | z-scoreMRSA+ mean ([1]; PKIS compound screen) | z-scoreMRSA+ rep 1 ([1]; PKIS compound screen) | z-scoreMRSA+ rep 2 ([1]; PKIS compound screen) | z-scoreMRSA+ rep 3 ([1]; PKIS compound screen) | %GFP+ rep 1 [1, 12] [%] | %GFP+ rep 2 [1, 12] [%] | %GFP+ rep 3 [1, 12] [%] | activity on bacterial burden (CFU) [3] | effect on CFU counts [4] | also measured
1 | O=S(=O)(CCNCc1ccc(-c2ccc3ncnc(Nc4ccc(OCc5cccc(F)c5)c(Cl)c4)c3c2)o1)c1ccccc1 [GW633459A] | Yes | Yes | -2.34 | -2.22 | -2.06 | -2.75 | 6.2 | 7.3 | 6.6 | not active | reductions in CFU counts | effect on planktonic MRSA growth (direct antibiotic effect) ([2]; up to 100 µM concentration): not observe any direct antibacterial effects; % inhibition at 1 µM EGFR [5]: 83%; % inhibition at 1 µM HER4 [6]: 89%
2 | COc1ccc2[nH]c3c4[nH]c5ccc(OC)cc5c4c4c(c3c2c1)C(=O)NC4=O [GW296115X] | – | – | – | – | – | – | 2.3 | 1.8 | 2.2 | – | – | z-scoreMRSA+ (z-score of GFP-positive cells) ([1]; 10 µM, 24 h, HeLa cells infected with GFP-expressing MRSA): -3.82; MRSA-infected cells (mean ± SD) ([1]; 10 µM, 24 h, HeLa cells, DMSO 14.6% ± 1.0%): 2.1% ± 0.26; effect ([1]; Yes/No call from z-scoreMRSA+): Yes; hit ([1]; Yes/No: effect without cell death): Yes; z-scoreMRSA+ mean [1, 13]: -3.82; z-scoreMRSA+ rep 1 [1, 13]: -3.48; z-scoreMRSA+ rep 2 [1, 13]: -3.91; z-scoreMRSA+ rep 3 [1, 13]: -4.06; direct antibiotic effects against MRSA ([2]; planktonic cultures): not the case; cell viability of MRSA-infected cells (LDH-release) [7]: rescued the loss of viability; ACC1 phosphorylation at Ser80 [8]: increased ACC1 phosphorylation
3 | CC(C)c1nc(-c2cccc(NS(=O)(=O)c3c(F)cccc3F)c2F)c(-c2ccnc(Nc3ccc(N4CCOCC4)nc3)n2)s1 [GSK2008607A] | No | No and Yes | -0.97 | -1.10 | -1.14 | -0.66 | 21.4 | 20.1 | 23.7 | not active | reductions in CFU counts | %GFP+ rep 1 [1, 14]: 8.4%; %GFP+ rep 2 [1, 14]: 9.2%; %GFP+ rep 3 [1, 14]: 10.2%; z-scoreMRSA+ mean [1, 15]: -2.86; z-scoreMRSA+ rep 1 [1, 15]: -2.77; z-scoreMRSA+ rep 2 [1, 15]: -2.79; z-scoreMRSA+ rep 3 [1, 15]: -3.01; effect ([1]; PKIS compound screen, Yes/No call on z-scoreMRSA+): Yes; cell viability of MRSA-infected cells (LDH-release) [9]: significantly improved the overall survival
